Measured values taken from US20250179166A1, “TREATMENT OF BRAIN METASTASIS” (Ramot at Tel-Aviv University Ltd., priority 2022, published 2025).

What was measured:
MDA-MB-231 spheroids = assay: Breast cancer 3D tumor spheroids; conditions: BC cells alone or with astrocytes, microglia and PBMCs
Protocol: Multicellular tumor spheroids (MCTS). MCTS were prepared using the hanging-drop method as previously shown (24). […] The sprouting of MCTS was analyzed using ImageJ 1.52v software, and the results were presented as total area covered or % of total area covered per spheroid (pixel density) per well.
The plates were incubated for 7 days at 37° C. in 5% CO2 and cell fluorescence was followed and quantified by Cytation™ C10.

[1] = tested on: 4T1 breast cancer brain metastases; assay: Orthotopic breast cancer brain metastases (BCBM) model; format: in vivo, BALB/C mice; conditions: compared to the control group
Protocol: Breast Cancer Brain Metastases (BCBM). To generate primary breast rumors prior to BCBM, 4T1 cells (3×10^5 cells/100 μl) were inoculated orthotopically into the mammary fat pad of immunocompetent BALB/C mice. Seven days later, primary lesions were resected. One week post primary tumor resection, 4T1 cells (2×10^4 cells/2 μl) were intracranially inoculated stereotactically to the striatum of the same mice (previously bearing the primary tumors). […] Mice body weight change was monitored three times a week, and tumor growth was followed using 4.7T/1H magnetic resonance imaging (MRI, MR Solutions, UK). PBMCs activation.

[2] = tested on: melanoma cells (D4M.3A, B16-F10, A375, 131/4-5B1 and WM115); assay: Transwell migration of melanoma cells towards bindarit-treated astrocytes; conditions: addition of rh-MCP-1; p=0.006 (astrocytes), p=0.115 (CM)
Protocol: Transwell® Migration Assay. […] In order to assess melanoma migration in co-culture with astrocytes, human astrocytes (1×10^5 cells/well) or murine astrocytes (2×10^5 cells/well) were seeded in the lower chambers of the Transwell® inserts. […] All migrated cells were then fixed and stained (Hema 3 Stain System; Fisher Diagnostics, fixed and stained (Hema 3 Stain System; Fisher Diagnostics, USA). The stained migrated cells were imaged using EVOS FL Auto microscope (Life Technologies, USA) using 10× objective, brightfield illumination.

131/4-5B1 melanoma cells = assay: Wound healing migration assay; format: cell-based, human; conditions: vs cells in astrocytes SFM
Protocol: (§1) Wound Healing Assay. To study the role of MCP-1 in mediating melanoma cells migration, (WM115 and 131/4-5B1 cells) (5×10^4 cells/well) were plated onto 96-well ImageLock tissue culture plate and allowed to grow until confluence. Next, a wound was created in each well using a 96-pin wound-making tool (WoundMaker, Essen BioScience, Sartorius, USA), and dislodged cells were washed with PBS. Melanoma cells were treated for 48 h with astrocytes CM, human astrocytes CM treated with siRNA:PEI polyplexes (500 nM siRNA targeting MCP-1 or scramble siRNA), astrocytes CM supplemented with 10 µg/mL anti-MCP-1 neutralizing antibody, astrocytes SFM supplemented with 1 μg/mL rh/mMCP-1. To monitor wound closure, the plate was placed in the IncuCyte™ ZOOM Live Cell Imaging system (Essen Bioscience, Sartorius, USA) and phase contrast images were taken every 2 h intervals over a course of 48 h using 10× objective. Results were calculated by the IncuCyte™ Software and presented as relative wound density (relative to the background density of the wound at time 0).

WM115 melanoma cells = assay: Wound healing migration assay; format: cell-based, human; conditions: vs cells in astrocytes SFM
Protocol: as §1

MDA-MB-231 cells = assay: Breast cancer Transwell migration; conditions: vs control

## COc1ccc(C2CC(c3c(O)cc(C)oc3=O)=NCCS2)c(OC)c1 (stereo not drawn) [SELPi, 3-[7-(2,4-Dimethoxyphenyl)-2,3,6,7-tetrahydro-1,4-thiazepin-5-yl]-4-hydroxy-6-methyl-2H-pyran-2-one]
MDA-MB-231 spheroids
  spheroid size: significant decrease
[1]
  systemic disease relapse (primary tumor recurrence or extracranial metastases): did not show any improvement in relapse

## rh-MCP-1: Recombinant human/murine MCP-1
[2]
  rescue of melanoma cell migration in presence of bindarit-treated astrocytes: rescued the inhibition of melanoma cell migration
131/4-5B1 melanoma cells
  increase of melanoma cell migration (wound healing): 27%
WM115 melanoma cells
  increase of melanoma cell migration (wound healing): 5%
MDA-MB-231 cells
  MDA-MB-231 migration towards MCP-1 recombinant protein: migrated more
